# Data taken from patent US20060240048A1 (priority 2002, published 2006).
# Biological target: T1, human cannabinoid CB2 receptor (Homo sapiens, UniProt P34972)
# T1 construct: expressed in transfected cells; host or cells: Saccharomyces cerevisiae strain MMY23
# Assay: Cannabinoid CB2 receptor agonist activity, yeast reporter assay (FDGlu fluorescence);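 on Emax: 100% equals maximal response of reference agonist HU210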
# Type: cell-based
# Details: for Emax: read-out: efficacy value (Emax) at the cloned human cannabinoid CB2 receptor
# T1 sequence (P34972 whole entry): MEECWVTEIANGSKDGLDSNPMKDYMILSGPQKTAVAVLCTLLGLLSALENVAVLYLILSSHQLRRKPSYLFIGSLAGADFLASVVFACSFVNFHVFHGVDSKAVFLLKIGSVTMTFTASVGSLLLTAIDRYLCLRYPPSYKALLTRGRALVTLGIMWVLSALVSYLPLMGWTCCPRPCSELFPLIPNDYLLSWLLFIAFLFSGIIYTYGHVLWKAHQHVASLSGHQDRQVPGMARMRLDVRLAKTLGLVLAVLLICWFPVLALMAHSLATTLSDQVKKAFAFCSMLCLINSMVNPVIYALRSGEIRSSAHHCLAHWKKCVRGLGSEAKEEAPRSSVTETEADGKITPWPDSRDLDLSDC
SMILES,EC50,Emax
"Cc1cccc(Nc2cc(C(C)C)c(C(=O)NCC3CCCC3)cn2)c1 [Example 24, N-Cyclopentylmethyl-4-isopropyl-6-m-tolylamino-nicotinamide]",< 0.3 µM,> 50%
"O=C(NCC1CCOCC1)c1cnc(Nc2ccc(Cl)cc2F)cc1C(F)(F)F [Example 162, N-(Tetrahydropyran-4-yl-methyl)-6-(2-fluoro-4-chloro-phenylamino)-4-trifluoro-methyl-nicotinamide]",< 0.3 µM,> 50%
"CC(C)c1cc(Nc2ccc(F)c(Cl)c2)ncc1C(=O)NCC1CCOCC1 [Example 77, 6-(3-Chloro-4-fluoro-phenylamino)-4-isopropyl-N-(tetrahydro-pyran-4-ylmethyl)-nicotinamide]",< 0.3 µM,> 50%
"O=C(NCC1CCCC1)c1cnc(Nc2cccc(F)c2)cc1C(F)(F)F [Example 130, N-Cyclopentylmethyl-6-(3-fluoro-phenylamino)-4-tri-fluoromethyl-nicotinamide]",< 0.3 µM,> 50%
"CC(C)CNC(=O)c1cnc(Nc2cccc(Cl)c2)cc1C(C)C [Example 268, 6-(3-Chloro-phenylamino)-N-isobutyl-4-isopropyl-nicotinamide]",,> 50%
"CC(C)c1cc(Nc2cccc(Br)c2)ncc1C(=O)NCC1CCCCC1 [Example 12, 6-(3-Bromo-cyclohexylmethyl-4-phenylamino)-N-isopropyl-nicotinamide]",< 0.3 µM,> 50%
"CC(C)CNC(=O)c1cnc(Nc2ccc(Cl)cc2Cl)cc1C(C)C [Example 273, 6-(2,4-Dichloro-phenylamtno)-N-isobutyl-4-isopropyl-nicotinamide]",< 0.3 µM,> 50%
"COCCNC(=O)c1cnc(Nc2cccc(Cl)c2)cc1C(C)C [Example 57, 6-(3-Chloro-phenylamino)-4-isopropyl-N-(2-methoxy-ethyl)-nicotinamide]",,> 50%
"O=C(NCC1CCC1)c1cnc(Nc2ccc(F)cc2)cc1C(F)(F)F [Example 134, N-Cyclobutylmethyl-6-(4-fluoro-phenylamino)-4-trifluoromethyl-nicotinamide]",< 0.3 µM,> 50%
"O=C(NCC1CCCCC1)c1cnc(Nc2cccc(F)c2)cc1C(F)(F)F [Example 128, N-Cyclohexylmethyl-6-(3-fluoro-phenylamino)-4-tri-fluoromethyl-nicotinamide]",< 0.3 µM,> 50%
"CC(C)c1cc(Nc2cccc(Br)c2)ncc1C(=O)NCC1CCCC1 [Example 26, 6-(3-Bromophenylamino)-N-cyclopentylmethyl-4-isopropyl-nicotinamide]",< 0.3 µM,> 50%
"CC(C)c1cc(Nc2ccc(C#N)c(C(F)(F)F)c2)ncc1C(=O)NCC1CCOCC1 [Example 96, 6-(4-Cyano-3-trifluoromethyl-phenylamino)-4-isopropyl-N-(tetrahydro-pyran-4-ylmethyl)-nicotinamide]",,> 50%
"O=C(NCC1CCCCC1)c1cnc(Nc2ccc(Cl)c(Cl)c2)cc1C(F)(F)F [Example 159, N-Cyclohexylmethyl-6-(3,4-dichloro-phenylamino)-4-tri-fluoromethyl-nicotinamide]",< 0.3 µM,> 50%
CC(C)c1cc(Nc2ccc(Cl)c(Cl)c2)ncc1C(=O)NCC1CCCC1 [Example 32],< 0.3 µM,> 50%
